Data on 30 compounds can be found in patent publication US9434711B2 (Janssen Pharmaceutica, NV, priority 2007, dated 2016).

The target in this assay is canine TRPM8 (Canis lupus familiaris, UniProt Q1A7N1). Kind of assay: In Vitro Canine TRPM8 Functional Assay (Ca2+ fluorescence, icilin activation). Type of assay: cell-based. The note with it: for IC50: read-out: IC50; for inhibition at 0.5 µM: compound at 0.5 μM, read-out: % Inh @ 0.5; for inhibition at 0.2 µM: read-out: % Inh @ 0.2. In short, it runs like this:
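Eight-point dose-response curves, each point averaging quadruplicate wells, gave EC50 or IC50. Canine TRPM8-expressing HEK293 cells, dye-loaded (Calcium 3), were pre-exposed 5 min to compound, then challenged with icilin at roughly EC80; intracellular Ca2+ read by FLIPR or FDSS fluorescence.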

[1] abbreviates: HEK293 cells stably expressing canine TRPM8, icilin activation, eight-point dose-response.
Setting [2] is: canine TRPM8, icilin activation.
Setting [3] is: compound at 0.2 μM, canine TRPM8, icilin activation.
Setting [4] is: 0.2 μM compound, HEK293 cells stably expressing canine TRPM8, icilin activation.
[5] abbreviates: HEK293 cells stably expressing canine TRPM8, icilin activation, average of two or more determinations.

Like-named read-outs stand apart in the source and are kept apart here.

Chain of canine TRPM8 (Q1A7N1 1-1104): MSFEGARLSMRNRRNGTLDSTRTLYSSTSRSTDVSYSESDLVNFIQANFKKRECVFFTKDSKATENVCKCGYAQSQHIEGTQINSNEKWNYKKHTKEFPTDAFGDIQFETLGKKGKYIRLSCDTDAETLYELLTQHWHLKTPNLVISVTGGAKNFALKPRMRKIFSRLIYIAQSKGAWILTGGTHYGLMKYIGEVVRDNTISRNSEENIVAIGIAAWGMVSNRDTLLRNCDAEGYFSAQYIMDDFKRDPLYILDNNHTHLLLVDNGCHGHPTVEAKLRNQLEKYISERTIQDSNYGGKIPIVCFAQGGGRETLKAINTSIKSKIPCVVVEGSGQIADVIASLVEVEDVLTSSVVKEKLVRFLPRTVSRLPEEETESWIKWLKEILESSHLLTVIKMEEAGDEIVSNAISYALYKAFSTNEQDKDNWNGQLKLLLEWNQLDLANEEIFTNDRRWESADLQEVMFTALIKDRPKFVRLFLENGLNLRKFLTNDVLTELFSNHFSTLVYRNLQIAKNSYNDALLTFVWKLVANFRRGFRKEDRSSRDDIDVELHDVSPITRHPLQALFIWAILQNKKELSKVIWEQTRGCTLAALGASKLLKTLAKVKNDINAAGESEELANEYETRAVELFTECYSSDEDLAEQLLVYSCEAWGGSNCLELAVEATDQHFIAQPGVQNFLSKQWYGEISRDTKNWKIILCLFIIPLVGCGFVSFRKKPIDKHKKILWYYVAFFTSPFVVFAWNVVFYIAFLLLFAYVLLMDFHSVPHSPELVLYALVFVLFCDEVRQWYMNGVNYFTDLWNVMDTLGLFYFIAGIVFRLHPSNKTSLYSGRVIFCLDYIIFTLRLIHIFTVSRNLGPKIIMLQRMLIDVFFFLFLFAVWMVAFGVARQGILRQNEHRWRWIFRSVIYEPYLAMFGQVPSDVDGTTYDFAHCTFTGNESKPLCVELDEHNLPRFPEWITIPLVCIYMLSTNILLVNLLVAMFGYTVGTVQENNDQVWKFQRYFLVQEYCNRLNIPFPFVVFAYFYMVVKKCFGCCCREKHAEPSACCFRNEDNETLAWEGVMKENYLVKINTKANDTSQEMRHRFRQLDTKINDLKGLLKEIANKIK

Regarding `Cc1c(N(Cc2ccc(F)c(F)c2)S(=O)(=O)c2cccs2)sc2ccccc12` [Compound 129, N-(3,4-Difluoro-benzyl)-N-(3-methyl-benzo[b]thiophen-2-yl)-thiene-2-ylsulfonamide], the 50% inhibitory concentration (IC50) under setting [1] stood at 2.8 nM. Under setting [2], the inhibition at 0.5 µM was 101%.
On to `O=C(O)c1cccc(S(=O)(=O)N(Cc2ccc(F)c(C(F)(F)F)c2)c2sc3ccccc3c2Cl)c1` [Compound 307, N-(3-Chloro-benzo[b]thiophen-2-yl)-N-(4-fluoro-3-trifluoromethyl-benzyl)-3-carboxy-benzenesulfonamide], for which the IC50 under setting [1] came out at 15.1 nM. The inhibition at 0.2 µM under setting [3] is 101%.
For the compound `Cc1c(N(Cc2cccc(C(F)(F)F)c2)S(=O)(=O)c2ccc(C(=O)O)cc2)sc2ccccc12` [Compound 491, N-(3-Methyl-benzo[b]thiophen-2-yl)-N-(3-trifluoromethyl-benzyl)-4-carboxy-benzenesulfonamide], the IC50 under setting [1] amounted to 1 nM. For the same compound, the inhibition at 0.2 µM under setting [3] came to 101%.
In the case of `CS(=O)(=O)Nc1c(N(Cc2ccc(F)c(C(F)(F)F)c2)S(=O)(=O)c2ccccc2)sc2ccccc12` [Compound 508, N-(4-Fluoro-3-trifluoromethyl-benzyl)-N-(3-methanesulfonylamino-benzo[b]thiophen-2-yl)-benzenesulfonamide], under setting [3], the inhibition at 0.2 µM was 47%.
With `Cc1c(N(Cc2cccc3cccnc23)S(=O)(=O)c2ccsc2)sc2ccccc12` [Compound 17, N-(3-Methyl-benzo[b]thiophen-2-yl)-N-(quinolin-8-ylmethyl)-thiophene-3-sulfonamide], the IC50 under setting [1] is 22 nM. Moreover, the inhibition at 0.5 µM under setting [2] turned out to be 97%.
The like results for `Cc1c(N(Cc2ccc(C(F)(F)F)c(F)c2)S(=O)(=O)c2cccs2)sc2ccccc12` [Compound 38, N-(3-Fluoro-4-trifluoromethyl-benzyl)-N-(3-methyl-benzo[b]thiophen-2-yl)-thiophene-2-sulfonamide] were, in that order, 3 nM and 97%.
For the compound `CCCCNS(=O)(=O)N(CCCC)c1cc2ccccc2s1` [Compound 850, N-Benzo[b]thiophen-2-yl-N,N′-bis-butyl-sulfamide], the inhibition at 0.2 µM under setting [4] turned out to be 28%.
Turning to `CCCN(c1sc2ccccc2c1C)S(=O)(=O)c1ccc(C(=O)O)cc1` [Compound 404, N-(3-Methyl-benzo[b]thiophen-2-yl)-N-(propyl)-4-carboxy-benzenesulfonamide], the inhibition at 0.2 µM under setting [3] was 96%.
For `CC(=O)c1c(N(Cc2ccc(F)c(C(F)(F)F)c2)S(C)(=O)=O)sc2ccccc12` [Compound 228, N-(3-Acetyl-benzo[b]thiophen-2-yl)-N-(4-fluoro-3-trifluoromethyl-benzyl)-methanesulfonamide], the concentration for half-maximal inhibition (IC50) under setting [1] was found to be 6 nM. The inhibition at 0.2 µM under setting [3] was found to be 101%.
As to `Cc1c(N(CCCCC(F)(F)F)S(=O)(=O)c2cnccc2-c2nnn[nH]2)sc2ccccc12` [Compound 806, N-(3-Methyl-benzo[b]thiophen-2-yl)-N-(5,5,5-trifluoro-pentyl)-4-(1H-tetrazol-5-yl)-pyridin-3-ylsulfonamide], the IC50 under setting [5] came out at 13 nM.
Regarding `O=c1[nH]c(-c2ccc(S(=O)(=O)N(Cc3ccc(F)c(C(F)(F)F)c3)c3cc4ccccc4s3)cc2)no1` [Compound 483, N-(Benzo[b]thiophen-2-yl)-N-(4-fluoro-3-trifluoromethyl-benzyl)-4-(5-oxo-4,5-dihydro-[1,2,4]oxadiazol-3-yl)-benzenesulfonamide], the IC50 under setting [1] stood at 9 nM. Moreover, the inhibition at 0.2 µM under setting [3] is 101%.
In the case of `CCS(=O)(=O)N(CCC(F)(F)F)c1sc2ccccc2c1C(C)O` (centres unmarked) [Compound 282, N-(3-(1-Hydroxyethyl)benzo[b]thiophen-2-yl)-N-(3,3,3-trifluoro-propyl)-ethanesulfonamide], under setting [1], the IC50 is 70 nM. The inhibition at 0.2 µM under setting [3] was 86%.
“N-(3-Methyl-benzo[b]thiophen-2-yl)-N-(cyclopropyl-ethyl)-4-morpholino-3-pyridyl-sulfonamide [Compound 798]”: the “% Inh @ 0.2 (μM)” value under setting [4] amounted to 102%. For the same compound, the concentration for half-maximal inhibition (IC50) under setting [5] came to 35.9 nM.
On to `COC(=O)c1cccc(S(=O)(=O)N(Cc2ccc(F)c(C(F)(F)F)c2)c2sc3ccccc3c2Cl)c1` [Compound 195, N-(3-Chloro-benzo[b]thiophen-2-yl)-N-(4-fluoro-3-trifluoromethyl-benzyl)-3-carbomethoxy-benzenesulfonamide], for which the IC50 under setting [1] amounted to 47.3 nM. The inhibition at 0.2 µM under setting [3] was 88%.
As for `CCS(=O)(=O)N(Cc1ccnc(F)c1)c1sc2ccccc2c1C(C)(C)O` [Compound 836, N-(2-Fluoro-pyridin-4-ylmethyl)-N-[3-(1-hydroxy-1-methyl-ethyl)-benzo[b]thiophen-2-yl]-ethanesulfonamide], the inhibition at 0.2 µM under setting [4] is 96%. For the same compound, the IC50 under setting [5] came out at 24 nM.
As for `O=S1NC(c2ccc(S(=O)(=O)N(CCC3CC3)c3cc4ccccc4s3)cc2)=NO1` (centres unmarked) [Compound 610, N-(Benzo[b]thiophen-2-yl)-N-(cyclopropyl-ethyl)-4-(3H-[1,2,3,5]oxathiadiazole-2-oxide)-benzenesulfonamide], the “% Inh @ 0.2 (μM)” value under setting [3] is 55%.
In the case of `Cc1c(N(Cc2ccc(F)c(C(F)(F)F)c2)S(=O)(=O)c2cnccc2N(C)C)sc2ccccc12` [Compound 360, N-(3-Methyl-benzo[b]thiophen-2-yl)-N-(4-fluoro-3-trifluoromethyl-benzyl)-4-dimethylamino-pyridin-3-yl-sulfonamide], the IC50 under setting [1] is 41 nM.
With `COC(=O)CCS(=O)(=O)N(CCCCC(F)(F)F)c1sc2ccccc2c1C` [Compound 603, N-(3-Methyl-benzo[b]thiophen-2-yl)-N-(5,5,5-trifluoro-pentyl)-2-carbomethoxy-ethanesulfonamide], under setting [1], the IC50 came to 10.3 nM. Under setting [3], the inhibition at 0.2 µM worked out at 101%.
With `CCCCN(c1sc2ccccc2c1C(N)=O)S(=O)(=O)c1ccc(C(=O)O)cc1` [Compound 468, N-(Butyl)-N-(3-carbamoyl-benzo[b]thiophen-2-yl)-4-carboxy-benzenesulfonamide], the inhibition at 0.2 µM under setting [3] was 16%.
As to `CCCCN(c1sc2ccccc2c1C(N)=O)S(=O)(=O)c1ccc(C(=O)OC)cc1` [Compound 465, N-(Butyl)-N-(3-carbamoyl-benzo[b]thiophen-2-yl)-4-carbomethoxy-benzenesulfonamide], the concentration for half-maximal inhibition (IC50) under setting [1] turned out to be 63 nM. The inhibition at 0.2 µM under setting [3] was 90%.
The like results for `CC(=O)c1c(N(Cc2ccc(F)cc2)S(=O)(=O)c2ccc(Br)cc2)sc2ccccc12` [Compound 730, N-(3-Acetyl-benzo[b]thiophen-2-yl)-4-bromo-N-(4-fluoro-benzyl)benzene-sulfonamide] were, in that order, 23.6 nM and 100%.
The like results for `O=C(O)c1ccc(S(=O)(=O)N(CC2CC2)c2sc3ccccc3c2Cl)cc1` [Compound 478, N-(3-Chloro-benzo[b]thiophen-2-yl)-N-(cyclopropylmethyl)-4-carboxy-benzenesulfonamide] were, in that order, 25 nM and 99%.
Regarding `Cc1c(N(Cc2ccc(S(=O)(=O)C(F)(F)F)cc2)S(=O)(=O)c2ccc(C(=O)O)cc2)sc2ccccc12` [Compound 494, N-(3-Methyl-benzo[b]thiophen-2-yl)-N-(4-trifluoromethylsulfone-benzyl)-4-carboxy-benzenesulfonamide], the half-maximal inhibitory concentration (IC50) under setting [1] came out at 0.9 nM. Moreover, the “% Inh @ 0.2 (μM)” value under setting [3] amounted to 101%.
Consider `Cc1c(N(Cc2ccc(F)c(F)c2)S(=O)(=O)N(C)C)sc2ccccc12` [Compound 44, N-(3,4-Difluoro-benzyl)-N-(3-methyl-benzo[b]thiophen-2-yl)-N′,N′-dimethylsulfamide], for which, under setting [1], the IC50 turned out to be 7 nM. For the same compound, the inhibition at 0.5 µM under setting [2] came to 98%.
On to `Cc1c(N(Cc2ccc(F)c(C(F)(F)F)c2)S(=O)(=O)c2ccc(C(=O)NO)cc2)sc2ccccc12` [Compound 555, 4-([4-Fluoro-3-trifluoromethyl-benzyl)-(3-methyl-benzo[b]thiophen-2-yl)-sulfamoyl]-N-hydroxy-benzamide], for which the IC50 under setting [1] was found to be 21.9 nM. Further, the inhibition at 0.2 µM under setting [3] is 102%.
The like results for `COC(=O)CCS(=O)(=O)N(Cc1cccc(OC(F)(F)F)c1)c1sc2ccccc2c1C` [Compound 760, N-(3-Methyl-benzo[b]thiophen-2-yl)-N-(3-trifluoromethoxy-benzyl)-2-carbomethoxy-ethanesulfonamide] were, in that order, 45.9 nM and 94%.
The like results for `COC(=O)c1cccc(S(=O)(=O)N(Cc2ccc(F)c(C(F)(F)F)c2)c2sc3ccccc3c2Br)c1` [Compound 193, N-(3-Bromo-benzo[b]thiophen-2-yl)-N-(4-fluoro-3-trifluoromethyl-benzyl)-3-carbomethoxy-benzenesulfonamide] were, in that order, 14.5 nM and 101%.
The like results for `O=C(O)c1ccc(S(=O)(=O)N(Cc2ccc(F)c(C(F)(F)F)c2)c2sc3ccccc3c2CO)cc1` [Compound 218, N-(3-Hydroxymethyl-benzo[b]thiophen-2-yl)-N-(4-fluoro-3-trifluoromethyl-benzyl)-4-carboxy-benzenesulfonamide] were, in that order, 1 nM and 90%.
`O=c1[nH]c(-c2ccc(S(=O)(=O)N(CCC(F)(F)F)c3cc4ccccc4s3)cc2)ns1` [Compound 684, N-(Benzo[b]thiophen-2-yl)-N-(3,3,3-trifluoro-propyl)-4-(5-oxo-4,5-dihydro-[1,2,4]thiadiazol-3-yl)-benzenesulfonamide]: under setting [1], the IC50 was 145 nM. Moreover, under setting [3], the inhibition at 0.2 µM is 73.1%.
The like results for `Cc1c(N(CCCCC(F)(F)F)S(=O)(=O)c2ccc(N(C)C)nc2)sc2ccccc12` [Compound 787] were, in that order, 14.9 nM and 102%.
